Experimental findings from patent US8569344B2, “N-piperidinyl acetamide derivatives as calcium channel blockers” (Zalicus Pharmaceuticals Ltd., priority 2008, dated 2013) are described below.

pIC50: −log10 of the molar value.

Experiment [1] deals with T1, human α1H T-type channels (Homo sapiens, UniProt O95180).
T1 construct: expressed in transfected cells; host or cells: HEK 293
Put plainly: T-type calcium channel block, whole cell patch clamp in HEK cells (α1H). Type of experiment: cell-based. The following applies: HEK cells, patch clamp, mainly non-inactivated protocol; values above 10 μM shown as 10 μM; read-out: T-type Calcium Channel Block α1H IC50. (The patch-clamp technique gives a direct electrical read-out from membranes.)

The target in experiment [2] is T2, human α1G T-type channels (Homo sapiens, UniProt O43497).
T2 construct: expressed in transfected cells; host or cells: HEK 293
Put plainly: T-type calcium channel block, whole cell patch clamp in HEK cells (α1G). Type of experiment: cell-based. As to conditions: HEK cells, patch clamp, mainly non-inactivated protocol; values above 10 μM shown as 10 μM, below 0.30 μM shown as 0.30 μM; read-out: T-type Calcium Channel Block α1G IC50.

T2 sequence (O43497 whole entry): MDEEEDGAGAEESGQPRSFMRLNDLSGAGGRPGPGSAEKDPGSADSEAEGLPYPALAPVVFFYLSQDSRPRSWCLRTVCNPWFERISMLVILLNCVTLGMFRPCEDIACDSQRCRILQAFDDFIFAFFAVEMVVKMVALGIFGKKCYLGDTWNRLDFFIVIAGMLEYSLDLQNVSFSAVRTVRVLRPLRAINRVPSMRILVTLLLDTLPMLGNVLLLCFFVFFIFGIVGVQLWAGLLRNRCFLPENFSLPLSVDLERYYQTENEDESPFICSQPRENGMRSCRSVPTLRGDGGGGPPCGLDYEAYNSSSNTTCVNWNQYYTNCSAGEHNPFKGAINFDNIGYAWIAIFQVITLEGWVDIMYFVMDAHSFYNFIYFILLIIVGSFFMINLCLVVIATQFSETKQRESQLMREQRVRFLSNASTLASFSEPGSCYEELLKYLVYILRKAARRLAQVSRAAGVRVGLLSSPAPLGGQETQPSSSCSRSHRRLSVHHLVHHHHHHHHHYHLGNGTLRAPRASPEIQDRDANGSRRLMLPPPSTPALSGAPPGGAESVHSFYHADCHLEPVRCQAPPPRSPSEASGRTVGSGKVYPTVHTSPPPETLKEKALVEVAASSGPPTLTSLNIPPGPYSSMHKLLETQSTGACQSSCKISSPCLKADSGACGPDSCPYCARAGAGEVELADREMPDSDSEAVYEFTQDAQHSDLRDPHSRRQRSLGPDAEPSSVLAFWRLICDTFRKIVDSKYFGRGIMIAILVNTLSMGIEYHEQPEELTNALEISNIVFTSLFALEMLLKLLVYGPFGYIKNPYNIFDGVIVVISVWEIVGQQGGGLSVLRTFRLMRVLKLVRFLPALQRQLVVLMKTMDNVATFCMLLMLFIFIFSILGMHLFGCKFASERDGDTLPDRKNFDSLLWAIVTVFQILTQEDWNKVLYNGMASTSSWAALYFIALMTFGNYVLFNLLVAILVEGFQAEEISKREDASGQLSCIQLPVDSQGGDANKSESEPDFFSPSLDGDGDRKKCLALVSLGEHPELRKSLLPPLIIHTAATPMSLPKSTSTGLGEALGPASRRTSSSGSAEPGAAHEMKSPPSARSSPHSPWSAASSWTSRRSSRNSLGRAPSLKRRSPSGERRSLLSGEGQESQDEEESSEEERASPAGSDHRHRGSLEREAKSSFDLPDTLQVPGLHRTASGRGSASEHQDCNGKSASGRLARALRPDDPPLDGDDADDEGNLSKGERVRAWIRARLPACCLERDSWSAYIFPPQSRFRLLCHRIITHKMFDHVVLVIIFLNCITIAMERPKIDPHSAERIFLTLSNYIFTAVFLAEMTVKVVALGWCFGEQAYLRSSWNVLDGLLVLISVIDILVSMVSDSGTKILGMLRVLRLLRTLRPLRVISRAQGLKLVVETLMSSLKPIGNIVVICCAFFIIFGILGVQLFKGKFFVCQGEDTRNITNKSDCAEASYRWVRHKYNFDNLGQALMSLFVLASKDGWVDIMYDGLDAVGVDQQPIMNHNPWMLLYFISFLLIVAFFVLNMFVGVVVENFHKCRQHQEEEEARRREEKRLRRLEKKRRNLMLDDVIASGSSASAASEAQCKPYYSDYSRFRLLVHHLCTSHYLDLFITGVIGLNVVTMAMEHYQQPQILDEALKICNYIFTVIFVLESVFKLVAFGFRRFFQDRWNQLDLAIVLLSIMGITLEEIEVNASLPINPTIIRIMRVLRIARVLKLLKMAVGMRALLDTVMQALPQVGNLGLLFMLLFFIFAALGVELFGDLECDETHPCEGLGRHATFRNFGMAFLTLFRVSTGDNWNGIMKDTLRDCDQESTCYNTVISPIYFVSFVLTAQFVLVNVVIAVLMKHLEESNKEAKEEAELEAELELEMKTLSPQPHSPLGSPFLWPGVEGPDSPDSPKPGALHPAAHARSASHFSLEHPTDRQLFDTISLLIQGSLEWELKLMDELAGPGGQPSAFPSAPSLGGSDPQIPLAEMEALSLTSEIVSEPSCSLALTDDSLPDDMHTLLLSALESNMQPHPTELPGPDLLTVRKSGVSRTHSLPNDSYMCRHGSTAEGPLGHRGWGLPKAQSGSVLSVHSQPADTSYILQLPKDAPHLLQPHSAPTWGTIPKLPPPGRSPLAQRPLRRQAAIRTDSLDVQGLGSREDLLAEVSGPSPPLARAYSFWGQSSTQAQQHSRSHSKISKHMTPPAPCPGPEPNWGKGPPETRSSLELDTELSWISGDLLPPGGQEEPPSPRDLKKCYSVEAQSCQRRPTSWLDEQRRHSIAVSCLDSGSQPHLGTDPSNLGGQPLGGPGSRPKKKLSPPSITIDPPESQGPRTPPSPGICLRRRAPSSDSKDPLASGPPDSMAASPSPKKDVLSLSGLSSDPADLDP
T1 sequence (O95180 whole entry): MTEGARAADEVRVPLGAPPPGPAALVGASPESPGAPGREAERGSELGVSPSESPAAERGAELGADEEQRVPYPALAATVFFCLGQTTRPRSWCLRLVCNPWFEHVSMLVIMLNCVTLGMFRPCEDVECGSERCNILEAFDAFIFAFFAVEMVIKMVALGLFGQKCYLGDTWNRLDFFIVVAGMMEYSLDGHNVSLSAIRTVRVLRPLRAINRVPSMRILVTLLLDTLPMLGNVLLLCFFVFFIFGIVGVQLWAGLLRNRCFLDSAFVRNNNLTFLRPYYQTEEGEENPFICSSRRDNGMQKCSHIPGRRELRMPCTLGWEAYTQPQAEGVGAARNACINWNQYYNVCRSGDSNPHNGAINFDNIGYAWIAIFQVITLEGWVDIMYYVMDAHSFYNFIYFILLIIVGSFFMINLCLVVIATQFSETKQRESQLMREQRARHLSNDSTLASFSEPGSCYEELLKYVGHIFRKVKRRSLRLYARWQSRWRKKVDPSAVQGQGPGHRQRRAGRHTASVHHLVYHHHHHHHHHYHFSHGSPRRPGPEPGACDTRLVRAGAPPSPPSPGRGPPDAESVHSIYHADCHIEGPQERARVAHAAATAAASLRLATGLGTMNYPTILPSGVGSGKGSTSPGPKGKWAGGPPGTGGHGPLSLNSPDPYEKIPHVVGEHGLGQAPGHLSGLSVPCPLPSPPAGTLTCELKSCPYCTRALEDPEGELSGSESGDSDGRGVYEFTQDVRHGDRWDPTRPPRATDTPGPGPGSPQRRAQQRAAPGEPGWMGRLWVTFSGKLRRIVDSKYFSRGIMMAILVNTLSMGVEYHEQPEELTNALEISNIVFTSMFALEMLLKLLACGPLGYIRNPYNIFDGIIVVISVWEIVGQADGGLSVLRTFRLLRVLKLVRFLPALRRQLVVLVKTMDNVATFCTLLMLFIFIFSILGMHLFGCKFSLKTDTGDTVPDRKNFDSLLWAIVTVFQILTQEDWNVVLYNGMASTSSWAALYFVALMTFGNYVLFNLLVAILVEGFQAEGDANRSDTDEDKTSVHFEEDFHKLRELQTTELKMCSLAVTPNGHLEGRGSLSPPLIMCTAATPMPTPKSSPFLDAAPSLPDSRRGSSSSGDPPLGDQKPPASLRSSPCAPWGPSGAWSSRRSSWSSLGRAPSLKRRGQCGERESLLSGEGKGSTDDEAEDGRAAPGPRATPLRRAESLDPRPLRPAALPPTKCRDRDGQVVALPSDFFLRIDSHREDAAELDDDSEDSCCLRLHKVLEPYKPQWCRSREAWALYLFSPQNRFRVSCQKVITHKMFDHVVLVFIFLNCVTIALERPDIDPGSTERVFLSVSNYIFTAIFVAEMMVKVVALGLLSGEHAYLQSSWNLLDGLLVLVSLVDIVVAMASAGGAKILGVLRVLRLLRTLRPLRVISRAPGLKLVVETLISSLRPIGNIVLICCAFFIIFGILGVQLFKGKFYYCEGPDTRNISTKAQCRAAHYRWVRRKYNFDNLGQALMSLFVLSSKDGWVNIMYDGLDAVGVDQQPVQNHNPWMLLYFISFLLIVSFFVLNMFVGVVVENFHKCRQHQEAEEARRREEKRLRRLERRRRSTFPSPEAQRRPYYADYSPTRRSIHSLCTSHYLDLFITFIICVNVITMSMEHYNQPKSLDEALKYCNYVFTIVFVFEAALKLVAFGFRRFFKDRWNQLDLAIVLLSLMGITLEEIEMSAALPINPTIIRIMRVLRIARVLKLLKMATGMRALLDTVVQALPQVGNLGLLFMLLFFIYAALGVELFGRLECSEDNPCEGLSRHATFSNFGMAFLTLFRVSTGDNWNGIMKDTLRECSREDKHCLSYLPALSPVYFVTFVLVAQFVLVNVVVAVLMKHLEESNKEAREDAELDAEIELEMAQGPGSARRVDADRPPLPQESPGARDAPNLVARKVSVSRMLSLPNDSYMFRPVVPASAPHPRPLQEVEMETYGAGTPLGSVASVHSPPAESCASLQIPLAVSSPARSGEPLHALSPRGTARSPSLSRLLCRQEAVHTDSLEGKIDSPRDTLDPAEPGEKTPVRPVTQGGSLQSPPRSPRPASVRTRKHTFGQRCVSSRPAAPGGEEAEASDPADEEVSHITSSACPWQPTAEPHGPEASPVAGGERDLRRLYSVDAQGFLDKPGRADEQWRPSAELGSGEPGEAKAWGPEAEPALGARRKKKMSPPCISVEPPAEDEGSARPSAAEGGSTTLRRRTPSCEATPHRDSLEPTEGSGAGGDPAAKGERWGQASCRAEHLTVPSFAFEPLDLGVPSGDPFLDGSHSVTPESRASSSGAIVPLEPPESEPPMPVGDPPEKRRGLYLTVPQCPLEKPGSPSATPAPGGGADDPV

For `O=C(NCC1CCN(CC(=O)N2CCC[C@@H]2C(F)(F)F)CC1)c1cc(F)cc(Cl)c1` [Compound 504, (R)-3-chloro-5-fluoro-N-((1-(2-oxo-2-(2-(trifluoromethyl)pyrrolidin-1-yl)ethyl)piperidin-4-yl)methyl) benzamide], the pIC50 in experiment [1] and in experiment [2] was 6.38 throughout.
For `CC(C)(C)C(=O)NCCN1CCC(CNC(=O)c2cc(Cl)cc(C(F)(F)F)c2)CC1` [Compound 301, 3-chloro-N-((1-(2-pivalamidoethyl)piperidin-4-yl)methyl)-5-(trifluoromethyl)benzamide], the pIC50 (commonly the negative decadic logarithm of the IC50, by convention in mol/L) in experiment [1] is 6.35; in experiment [2] it was more than 6.52.
For `CC(C)(F)CNC(=O)CN1CCC(CNC(=O)c2cc(C(F)(F)F)cc(C(F)(F)F)c2)CC1` [Compound 555, N-((1-(2-(2-fluoro-2-methylpropyl-amino)-2-oxoethyl)piperidin-4-yl)methyl)-3,5-bis(trifluoromethyl) benzamide], the negative-log IC50 (pIC50) was 6.05 in experiment [1] and 6.28 in experiment [2].
On the same counts, the results for `CC1(NC(=O)CN2CCC(CNC(=O)c3cccc(Cl)c3)CC2)CCC1` [Compound 481, 3-chloro-N-((1-(2-(1-methylcyclo-butylamino)-2-oxoethyl)piperidin-4-yl)methyl)benzamide] are 6.60 and more than 6.52.
Turning to `CN(CCN1CCC(CNC(=O)c2cc(F)cc(C(F)(F)F)c2)CC1)C(=O)NC1CCCCC1` [Compound 525, N-((1-(2-(3-cyclohexyl-1-methylureido)ethyl)piperidin-4-yl)methyl)-3-fluoro-5-(trifluoromethyl) benzamide], the pIC50 in experiment [1] is 6.11; in experiment [2], 5.63.
Taken in the same sequence, the figures for `NC1(C(=O)NCCN2CCC(CNC(=O)c3cc(F)cc(C(F)(F)F)c3)CC2)CCC1` [Compound 571, N-((1-(2-(1-aminocyclobutanecarboxamido)ethyl)piperidin-4-yl)methyl)-3-fluoro-5-(trifluoromethyl) benzazmide] were less than 5.00 and less than 5.00.
On to `O=C(NCC1CCN(CCNS(=O)(=O)C2CCCC2)CC1)c1cc(F)cc(C(F)(F)F)c1` [Compound 307, N-((1-(2-(cyclopentanesulfonamido)ethyl)piperidin-4-yl)methyl)-3-fluoro-5-(trifluoromethyl)benzamide], for which the results for the pIC50 in experiment [1] and in experiment [2] were 6.47 and more than 6.52, respectively.
On the same counts, the results for `COc1cc(F)cc(C(=O)NCC2CCN(CCNS(=O)(=O)C(F)(F)F)CC2)c1` [Compound 325, 3-fluoro-5-methoy-N-((1-(2-(trifluoromethylsulfonamido)ethyl)piperidin-4-yl)methyl)benzamide] are 5.47 and 5.18.
For `O=C(NCC1CCN(CCNS(=O)(=O)C(F)(F)F)CC1)c1cccc(Br)c1` [Compound 330, 3-bromo-N-((1-(2-(trifluoromethylsulfonamido)ethyl)piperidin-4-yl)methyl)benzamide], the pIC50 in experiment [1] and in experiment [2] was less than 5.00 throughout.
For `O=C(NCC1CCN(CCNS(=O)(=O)C2CC2)CC1)c1cc(F)cc(C(F)(F)F)c1` [Compound 230, N-((1-(2-(cyclopropanesulfonamido)ethyl)piperidin-4-yl)methyl)-3-fluoro-5-(trifluoromethyl)benzamide], the results for the pIC50 in experiment [1] and in experiment [2] were 6.07 and 5.32, respectively.
Consider `CC(C)(C)C(=O)NCCN1CCC(CNC(=O)c2cccc(OC(F)(F)F)c2)CC1` [Compound 292, N-((1-(2-pivalamidoethyl)piperidin-4-yl)methyl)-3-(trifluoromethoxy)benzamide], for which the pIC50 was 6.13 in experiment [1] and 6.44 in experiment [2].
Taken in the same sequence, the figures for `COc1cc(OC)cc(C(=O)NCC2CCN(CCNC(=O)C(C)(C)C(F)(F)F)CC2)c1` [Compound 491, 3,5-dimethoxy-N-((1-(2-(3,3,3-trifluoro-2,2-dimethylpropanamido)ethyl)piperidin-4-yl)methyl)benzamide] were 6.72 and more than 6.52.
For the molecule `CCNC(=O)NC1(CN2CCC(CNC(=O)c3cc(C(F)(F)F)cc(C(F)(F)F)c3)CC2)CCCC1` [Compound 11, N-((1-((1-(3-ethylureido)cyclopentyl)methyl)piperidin-4-yl)methyl)-3,5-bis(trifluoromethyl)benzamide], the pIC50 in experiment [1] was 5.42; in experiment [2], 5.72.
On the same counts, the results for `O=C(CCC(F)(F)F)NCCN1CCC(CNC(=O)c2cccc(Cl)c2)CC1` [Compound 315, 3-chloro-N-((1-(2-(4,4,4-trifluorobutanamido)ethyl)piperidin-4-yl)methyl)benzamide] are 5.83 and 5.00.
On the same counts, the results for `CC(C)(C)C(=O)NCCN1CCC(CNC(=O)c2cc(F)cc(F)c2)CC1` [Compound 293, 3,5-difluoro-N-((1-(2-pivalamidoethyl)piperidin-4-yl)methyl)benzamide] are 5.39 and 5.29.
Turning to `CC(C)(C)C(=O)NCCN1CCC(CNC(=O)c2cccc(C(F)(F)F)c2)CC1` [Compound 296, N-((1-(2-pivalamidoethyl)piperidin-4-yl)methyl)-3-(trifluoromethyl)benzamide], the pIC50 is 5.96 in experiment [1] and 6.21 in experiment [2].
On the same counts, the results for `CC(C)COC(=O)NC1(CN2CCC(CNC(=O)c3cc(C(F)(F)F)cc(C(F)(F)F)c3)CC2)CCCC1` [Compound 18, isobutyl 1-((4-((3,5-bis(trifluoromethyl)benzamido)methyl)piperidin-1-yl)methyl)cyclopentyl-carbamate] are 7.10 and more than 6.52.
Taken in the same sequence, the figures for `CC1(C(=O)NCCN2CCC(CNC(=O)c3cc(C(F)(F)F)cc(C(F)(F)F)c3)CC2)CC1` [Compound 337, N-((1-(2-(1-methylcyclopropanecarboxamido)ethyl)piperidin-4-yl)methyl)-3,5-bis(trifluoromethyl)benzamide] were 6.43 and 6.57.
In the case of `CC(C)(F)CNC(=O)CN1CCC(CNC(=O)c2cccc(Cl)c2)CC1` [Compound 554, 3-chloro-N-((1-(2-(2-fluoro-2-methylpropylamino)-2-oxoethyl)piperidin-4-yl)methyl)benzamide], the pIC50 in experiment [1] and in experiment [2] was less than 5.00 throughout.
Consider `C[C@@H]1CCCCN1CC(=O)N1CCC(CNC(=O)c2cc(C(F)(F)F)cc(C(F)(F)F)c2)CC1` [Compound 252, (R)-N-((1-(2-(2-methylpiperidin-1-yl)acetyl)piperidin-4-yl)methyl)-3,5-bis(trifluoromethyl)benzamide], for which the pIC50 in experiment [1] is 5.63; in experiment [2], 5.61.
Take `Cc1cc(C)cc(C(=O)NCC2CCN(CCNC(=O)CCC(F)(F)F)CC2)c1` [Compound 312, 3,5-dimethyl-N-((1-(2-(4,4,4-trifluorobutanamido)ethyl)piperidin-4-yl)methyl)benzamide]: the values for the pIC50 in experiment [1] and in experiment [2] were 6.12 and 5.37, respectively.
Regarding `O=C(/C=C/c1cc(Cl)cc(Cl)c1)NCC1CCN(CCNC(=O)CCC(F)(F)F)CC1` [Compound 316, (E)-N-(2-(4-((3-(3,5-dichlorophenyl)acrylamido)methyl)piperidin-4-1-yl)ethyl)-4,4,4-trifluorobutanamide], the pIC50 is 5.23 in experiment [1] and less than 5.00 in experiment [2].
On the same counts, the results for `O=C(NCC1CCN(CCNS(=O)(=O)C2CC2)CC1)c1ccc(C(F)(F)F)c(F)c1` [Compound 387, N-((1-(2-(cyclopropanesulfonamido)ethyl)piperidin-4-yl)methyl)-3-fluoro-4-(trifluoromethyl)benzamide] are 6.14 and 6.00.
On the same counts, the results for `O=C(NCC1CCN(C(=O)CN2CCCC(C(F)(F)F)C2)CC1)c1cc(F)cc(C(F)(F)F)c1` (stereo not drawn) [Compound 282, 3-fluoro-5-(trifluoromethyl)-N-((1-(2-(3-(trifluoromethyl)piperidin-1-yl)acetyl)piperidin-4-yl)methyl)benzamide] are 5.15 and 5.60.
Taken in the same sequence, the figures for `CC(C)(C)NC(=O)CN1CCC(CNC(=O)/C=C/c2cc(Cl)cc(Cl)c2)CC1` [Compound 378, (E)-N-((1-(2-(tert-butylamino)-2-oxoethyl)piperidin-4-yl)methyl)-3-(3,5-dichlorophenyl)acrylamide] were 5.84 and 5.80.
Consider `CC(C)NC(=O)CN1CCC(CNC(=O)c2cccc(Br)c2)CC1` [Compound 441, 3-bromo-N-((1-(2-(isopropylamino)-2-oxoethyl)piperidin-4-yl)methyl)benzamide], for which the pIC50 in experiment [1] is less than 5.00; in experiment [2] it was 5.02.
`CC(C)NC(=O)CN1CCC(CNC(=O)c2cccc(Cl)c2)CC1` [Compound 442, 3-chloro-N-((1-(2-(isopropylamino)-2-oxoethyl)piperidin-4-yl)methyl)benzamide]: the pIC50 in experiment [1] and in experiment [2] was less than 5.00 throughout.
In the case of `O=C(NCC1CCN(CCNS(=O)(=O)C2CC2)CC1)c1cccc(C(F)(F)F)c1` [Compound 228, N-((1-(2-(cyclopropanesulfonamido)ethyl)piperidin-4-yl)methyl)-3-(trifluoromethyl)benzamide], the figures for the pIC50 in experiment [1] and in experiment [2] were 5.63 and 5.78, respectively.
On the same counts, the results for `COc1cc(C(=O)NCC2CCN(CCNS(=O)(=O)C(F)(F)F)CC2)cc(C(F)(F)F)c1` [Compound 327, 3-methoxy-5-(trifluoromethyl)-N-((1-(2-(trifluoromethylsulfonamido)ethyl)piperidin-4-yl)methyl)benzamide] are 6.13 and more than 6.52.
On the same counts, the results for `CC(C)(C)C1CCN(CC(=O)N2CCC(CNC(=O)c3cc(F)cc(C(F)(F)F)c3)CC2)CC1` [Compound 285, N-((1-(2-(4-tert-butylpiperidin-1-yl)acetyl)piperidin-4-yl)methyl)-3-fluoro-5-(trifluoromethyl)benzamide] are less than 5.00 and 5.31.
